Results: patent US20090227601A1, “Bradykinin 1 Receptor Antagonists” (Amgen Inc., priority 2005, published 2009)

target: T1, hB2 receptor (Homo sapiens, UniProt P30411); experiment: In vitro Assay of hB2 Receptor Function using Calcium Flux; format: cell-based; details: recombinant CHO cells, antagonist IC50 against agonist at EC80
T1 construct: host or cells: CHO-K1
T1 sequence (P30411 1-391): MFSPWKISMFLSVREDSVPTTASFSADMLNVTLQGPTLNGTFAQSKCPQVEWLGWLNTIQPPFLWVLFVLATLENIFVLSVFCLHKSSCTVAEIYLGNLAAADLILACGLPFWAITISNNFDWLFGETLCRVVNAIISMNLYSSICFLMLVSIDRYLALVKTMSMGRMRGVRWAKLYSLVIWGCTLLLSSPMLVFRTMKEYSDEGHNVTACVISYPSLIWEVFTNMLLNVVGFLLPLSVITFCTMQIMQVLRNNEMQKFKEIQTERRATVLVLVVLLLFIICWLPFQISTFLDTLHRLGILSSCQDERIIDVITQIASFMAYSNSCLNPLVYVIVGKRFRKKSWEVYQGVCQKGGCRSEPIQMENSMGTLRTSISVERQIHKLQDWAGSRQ
Protocol: In vitro Assay of hB2 Receptor Function using Calcium Flux The intracellular calcium flux induced by hB2 receptor activation was analyzed using an hB2 recombinant cell line (CHO-K1) purchased from PerkinElmer (Catalog Number: RBHB2C000EA) on a fluorometric imaging plate reader (FLIPR). […] Culture medium was changed every other day. 24 h prior to the FLIPR assay, the hB2/CHO cells were washed once with PBS (Invitrogen) and 10 mL of Versene (1:5000, Invitrogen, Cat# 15040-066) was added to each flask. After 5 min incubation at 37° C., Versene was removed and cells were detached from the flask and resuspended in culture medium. Cells were counted and 25,000 cells/well were plated in 96-well black-sided clear bottom assay plates (Costar #3904). Cells were incubated in a 37° C. CO2 incubator overnight. The media was aspirated from the cells and replaced with 65 μL of dye-loading buffer. The loading buffer was prepared by diluting a stock solution of 0.5 mM Fluo-4 AM (Molecular Probes, dissolved in DMSO containing 10% [w/v] pluronic acid) to a concentration of 1 μM in Clear Dulbecco's Modified Eagle Medium (DMEM) containing 0.1% BSA, 20 mM HEPES, and 2.5 mM probenecid. The cells were dye-loaded for 1 h at RT. The excess dye was removed by washing the cells 2× with assay buffer. The assay buffer consists of Hank's Balanced Salt Solution (HBSS) containing 20 mM HEPES, 0.1% BSA, and 2.5 mM probenecid. After the wash cycles, a volume of 100 μL was left in each well, and the plate was ready to be assayed in the FLIPR System. […] The cell plate and the compound plates were loaded onto the FLIPR and during the assay, fluorescence readings are taken simultaneously from all 96 wells of the cell plate. Ten 1-second readings were taken to establish a stable baseline for each well, then 25 μL from the B1 antagonist plate was rapidly (50 μL/sec.) added. The fluorescence signal was measured in 1-second (1 min) followed by 6-second (2 min) intervals for a total of 3 min to determine if there is any agonist activity with the compounds.

Row | Compound | IC50 [nM]
1 | Cc1ccc(S(=O)(=O)N2C=CNC(=O)[C@H]2CC(=O)NC2CCCCC2C2CCCCC2)cc1 (stereo partly drawn) [T-1-40, N-1,1′-bi(cyclohexyl)-2-yl-2-((2R)-1-((4-methylphenyl)sulfonyl)-3-oxo-1,2,3,4-tetrahydro-2-pyrazinyl)acetamide] | 200
2 | Cc1ccc(S(=O)(=O)N2C=CNC(=O)[C@H]2CC(=O)NC2CCC(N3CCCC(F)C3)CC2(C)C)cc1 (stereo partly drawn) [T-1-41, N-(4-(3-fluoro-1-piperidinyl)-2,2-dimethylcyclohexyl)-2-((2R)-1-((4-methyl-phenyl)sulfonyl)-3-oxo-1,2,3,4-tetrahydro-2-pyrazinyl)acetamide] | 2
3 | Cc1ccc(S(=O)(=O)N2C=CNC(=O)[C@H]2CC(=O)NC2CCN(CCc3ccccc3)CC2)cc1 [T-1-58, N-(1-(2-phenethyl)-4-piperidinyl)-2-((2R)-1-((4-methylphenyl)sulfonyl)-3-oxo-1,2,3,4-tetrahydro-2-pyrazinyl)acetamide] | 20
4 | Cc1ccc(S(=O)(=O)N2C=CNC(=O)[C@H]2CC(=O)NC2CC(C)(C)N(C)C(C)(C)C2)cc1 [T-1-77, 2-((2R)-1-((4-methylphenyl)sulfonyl)-3-oxo-1,2,3,4-tetrahydro-2-pyrazinyl)-N-(1,2,2,6,6-pentamethyl-4-piperidinyl)acetamide] | 20
5 | COCCN1CC[C@@H](NC(=O)C[C@@H]2C(=O)NC=CN2S(=O)(=O)c2ccc(C)cc2)C(C)(C)C1 [T-1-120, N-((4R)-3,3-dimethyl-1-(2-(methyloxy)ethyl)-4-piperidinyl)-2-((2R)-1-((4-methylphenyl)sulfonyl)-3-oxo-1,2,3,4-tetrahydro-2-pyrazinyl)acetamide] | 1
6 | Cc1ccc(S(=O)(=O)N2C=CNC(=O)[C@H]2CC(=O)N(C)C2CCN(C)CC2)cc1 [T-2-1, 2-((2R)-1-((4-methylphenyl)sulfonyl)-3-oxo-1,2,3,4-tetrahydro-2-pyrazinyl)-N-methyl-N-(1-methyl-4-piperidinyl)acetamide] | 3
7 | COc1ccc(C2CN(C(=O)C[C@@H]3C(=O)NC=CN3S(=O)(=O)c3ccc(C)cc3)CCS2)cc1 (stereo partly drawn) [T-3-2, (3R)-3-(2-(2-(4-(methyloxy)phenyl)-4-thiomorpholinyl)-2-oxoethyl)-4-((4-methyl-phenyl)sulfonyl)-3,4-dihydro-2(1H)-pyrazinone] | 130
8 | Cc1ccc(S(=O)(=O)N2C=CNC(=O)[C@H]2CC(=O)N2CCCC2c2ccc(Cl)cc2)cc1 (stereo partly drawn) [T-3-3, (3R)-3-(2-(2-(4-chlorophenyl)-1-pyrrolidinyl)-2-oxoethyl)-4-((4-methylphenyl)-sulfonyl)-3,4-dihydro-2(1H)-pyrazinone] | 1000
9 | Cc1cc(S(=O)(=O)N2C=CNC(=O)[C@H]2CC(=O)N2CCC(N3CCCCC3)CC2)c(C)cc1Cl [T-3-8, (3R)-3-(2-(1,4′-bipiperidin-1′-yl)-2-oxoethyl)-4-((4-chloro-2,5-dimethylphenyl)-sulfonyl)-3,4-dihydro-2(1H)-pyrazinone] | 270
10 | Cc1ccc(S(=O)(=O)N2C=CNC(=O)[C@H]2CC(=O)N2C[C@@H](N)[C@H](c3ccccc3)C2)cc1 [T-3-10, (3R)-3-(2-((3S)-3-(amino)-4(R)-4-phenyl-1-pyrrolidinyl)-2-oxoethyl)-4-((4-methylphenyl)sulfonyl)-3,4-dihydro-2(1H)-pyrazinone] | 270
11 | Cc1cc(S(=O)(=O)N2C=CNC(=O)[C@H]2CC(=O)N2CCC(CO)CC2)c(C)cc1Cl [T-3-15, (3R)-4-((4-chloro-2,5-dimethylphenyl)sulfonyl)-3-(2-(4-(hydroxymethyl)-1-piperidinyl)-2-oxoethyl)-3,4-dihydro-2(1H)-pyrazinone] | 940
12 | Cc1cc(S(=O)(=O)N2C=CNC(=O)[C@H]2CC(=O)N2CCC(CN3CCCC3)CC2)c(C)cc1Cl [T-3-18, (3R)-4-((4-chloro-2,5-dimethylphenyl)sulfonyl)-3-(2-oxo-2-(4-(1-pyrrolidinylmethyl)-1-piperidinyl)ethyl)-3,4-dihydro-2(1H)-pyrazinone] | 160
